# Measured values taken from PubChem BioAssay (NCI).
#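 Five concentrations, 48 hours, 96-well plates. GI50 marks 50% less growth. TGI denotes the concentration required for complete inhibition of growth.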
# How the values were obtained:
# Assay in all cases: NCI-60 cell line screen, 48 h
# [1] = system: HS 578T breast
# [2] = system: M14 melanoma
# [3] = system: NCI-H226 lung
# [4] = system: RXF 393 renal
# [5] = system: SR leukemia
# [6] = system: T-47D breast
# [7] = system: OVCAR-4 ovarian
# [8] = system: LOX IMVI melanoma
# [9] = system: A549 NSCLC
# [10] = system: MOLT-4 leukemia
SMILES,GI50 [1] [µM],GI50 [2] [µM],TGI [2] [µM],GI50 [3] [µM],TGI [3] [µM],GI50 [4] [µM],TGI [4] [µM],GI50 [5] [µM],TGI [5] [µM],GI50 [6] [µM],TGI [6] [µM],GI50 [7] [µM],TGI [7] [µM],GI50 [8] [µM],TGI [8] [µM],GI50 [9] [µM],TGI [9] [µM],GI50 [10] [µM],TGI [10] [µM],TGI [1] [µM]
COc1ccccc1NC(=O)c1cc2cc(Br)ccc2cc1O,2.61,3.01,11.9,1.65,6.06,2.36,7.11,0.809,9.14,2,10.7,3.11,21.4,2.69,8.8,2.65,7.71,2.7,17.3,
CC(C)(C)[Si](C)(C)OC1[C@@H](O[Si](C)(C)C(C)(C)C)[C@@H](CNC(=O)NC(=O)C(F)(F)F)O[C@H]1n1cnc2c(NC(=O)Nc3ccccc3)ncnc21 (stereo not given in full),4.5,5.72,13.2,4.61,11.8,1.3,4.25,1.52,5.25,5.64,11.8,3.98,10.9,6.12,12.3,4.5,12.4,1.67,7.03,17.2
O=C(Nc1nn2c(-c3cc(C(F)(F)F)cc(C(F)(F)F)c3)nnc2s1)C1CCCC1,0.706,0.957,> 100,1.23,> 100,1.62,> 33.9,0.942,6.21,0.375,> 24.6,0.748,> 37.9,0.807,> 100,1.08,> 100,0.643,4.53,> 100
COC(=O)c1cc2oc(/C=C3/SC(=S)N(NC(C)=O)C3=O)cc2n1C,15.2,10.8,31.8,21.5,51.7,36.5,87.7,3.32,> 100,29.6,90.7,37.7,> 100,11.1,27.9,28.3,> 100,11.3,62.1,59.2
CCCCCCCCCCSC(=N)N (tested in a mixture with another compound),8.03,1.87,3.85,18.3,40.1,2.55,7.23,2.34,6.9,1.86,4.95,3.44,16,2.72,11.1,4.36,18,1.85,5.51,29.5
COc1ccc(CN2C(=O)C(Cl)=C(Nc3cccc(C(F)(F)F)c3)C2=O)cc1,3.14,,,2.57,17.4,0.0458,6.01,2.77,8.88,3.88,21.5,4.74,30.6,3.08,14.1,8.54,> 100,2.39,9.29,13.1
Nc1nc2[nH]cc(CCc3ccc(C(=O)N[C@@H](CCC(=O)O)C(=O)O)cc3)c2c(=O)[nH]1,,0.158,> 100,,> 100,,> 100,,> 100,,> 100,,> 100,0.111,> 100,0.587,> 100,0.53,> 100,> 100
O=C1c2c(F)c(F)c(F)c(F)c2C(=O)N1c1ccc(F)cc1F,35.5,13.4,33.6,17.2,50.8,7.68,> 46.7,0.144,1.2,19.7,46.8,16.9,53.3,1.5,5.11,16.3,34.7,0.864,3.73,> 100
O=C1CSC(=S)N1/N=C/c1ccc(Cl)c([N+](=O)[O-])c1,,,40.6,,> 100,,> 100,,> 100,,59.3,,50.7,,47.7,,> 100,,> 100,> 100
O=C(Nc1cccc(C(F)(F)F)c1)Nc1cccc(C(F)(F)F)c1,2.25,1.32,3.93,1.01,3.66,1.49,4.35,1.77,7.56,0.398,2.94,0.679,13.7,1,2.28,0.531,8.21,1.34,6.44,12.5
COC(=O)/C=C/c1cc(OC(C)=O)c2c(c1)[C@@H](C(=O)OC)[C@H](c1ccc(OC(C)=O)c(OC(C)=O)c1)O2,0.0343,0.0338,39,1.71,27.4,0.075,3.03,0.0281,> 49.6,0.452,67.3,0.34,38.2,0.0615,40.3,0.248,> 78.8,0.09,> 55,17.7
COC(=O)[C@]12CC[C@@H](C)[C@H](C)[C@@H]1C1=CC[C@@H]3[C@@]4(C)C[C@@H](O)[C@H](O)[C@@](C)(CO)[C@@H]4[C@H](O)C[C@@]3(C)[C@]1(C)CC2,18.5,12.8,29.4,17.8,45,9.32,23.1,11.9,40.8,7.23,29.1,12.1,32.8,14,28,15.8,45.2,4.58,25.6,45.8
Cc1ccc(-c2nc(N3CCNCC3)c3oc(-c4ccc(C)cc4)nc3n2)cc1,,1.83,3.69,> 44.1,> 64.7,3.89,8.81,0.371,1.85,25.7,> 61.1,2.22,10.6,1.88,3.46,3.35,12.4,2.2,4.69,> 24.2
